According to patent publication US11787839B2, “Targeting α2δ-1-bound glutamate receptors for treating diseases and disorders” (Board of Regents, The University of Texas System, priority 2017, dated 2023):

Assays:
[1] = molecular target: presynaptic NMDARs of spinal lamina II neurons (Rattus norvegicus, UniProt P35439+Q00959+Q00960)
paclitaxel-treated rats = assay: Paclitaxel-induced pain hypersensitivity in rats; type: in vivo, rat; conditions: intrathecal 5 μg pregabalin, 1 μg peptides
Method: To induce neuropathic pain, rats and mice were intraperitoneally injected with paclitaxel (2 mg/kg; TEVA Pharmaceuticals, North Wales, Pa.) every 2 days for a total of 4 injections (days 1, 3, 5 and 7; total dose, 8 mg/kg), as described previously (Polomano et al., 2001). Animals in the control group were intraperitoneally injected with the vehicle (Cremophor EL/ethanol, 1:1) on the same 4 days. The presence of tactile allodynia was confirmed 10 to 12 days after drug treatment. Intrathecal catheters were implanted in some paclitaxel-treated rats during isoflurane-induced anesthesia. Briefly, a small puncture was made in the atlanto-occipital membrane of the cisterna magna and inserted a PE-10 catheter with the caudal tip reaching the lumbar enlargement of the spinal cord (Chen et al., 2014a; Xie et al., 2016).
Behavioral assessment of nociception: To measure tactile allodynia, mice or rats were individually placed on a mesh floor within a suspended chamber. […]
To quantify the mechanical nociceptive threshold in rats, the paw pressure (Randall-Selitto) test was conducted on the left hindpaw using an analgesiometer (Ugo Basile, Varese, Italy). […] When the rat withdrew its paw or vocalized, the pedal was immediately released, and the withdrawal threshold was recorded (Chen et al., 2014a). […]
To assess the thermal sensitivity of rats, the were placed individually on the glass surface of a thermal testing apparatus (IITC Life Sciences, Woodland Hills, Calif.). […] The paw withdrawal latency was recorded with a timer, and the hindpaw was tested twice to obtain an average time. […] After the threshold temperature was recorded, the mice were immediately removed from the plate. The heat threshold measurement was repeated 30 min later, and the average of the 2 recorded temperatures was considered as the heat threshold. The cold threshold was measured by cooling the plate from 30° C. at a rate of 6° C./min until nocifensive behaviors were observed. […]

[2] = test system: rats treated with the Cacna2d1 vector; assay: Withdrawal thresholds in rats overexpressing Cacna2d1 (lentiviral vector); type: in vivo, rat; conditions: Cacna2d1 vector rats; AP5, peptide, gabapentin intrathecal; memantine systemic
morphine-treated rats = assay: Opioid-induced hyperalgesia and analgesic tolerance in rats
[3] = test system: presynaptic NMDARs of spinal dorsal horn neurons; assay: Spinal cord slice recordings, morphine-treated WT and Cacna2d1 KO mice; conditions: WT mice
WT and Cacna2d1 KO mice = assay: Opioid-induced hyperalgesia and analgesic tolerance in WT and Cacna2d1 KO mice
[4] = molecular target: T1, NMDARs of spinally projecting PVN neurons (Rattus norvegicus, UniProt P35439+Q00959+Q00960); assay: Recordings of spinally projecting PVN neurons in rat brain slices (Ang II); type: cell-based; conditions: losartan 2 μmol/L, pregabalin 20 μmol/L, peptides 1 μmol/L
T1 construct: from tissue; host or cells: rat hypothalamic slices containing the PVN (Sprague-Dawley, WKY, SHR) and synaptosomes made from them
Excerpt: Retrograde labeling of spinally projecting PVN neurons: Rats or mice were anesthetized with 2-3% isoflurane, and their spinal cords at the T1-T4 level were exposed through dorsal laminectomy. A fluorescent microsphere suspension (FluoSpheres, 0.04 μm; Molecular Probes, Invitrogen, Eugene, Oreg.) was pressure ejected (Nanoject II Microinjectors, Drummond Scientific Company, Broomall, Pa.) bilaterally into the IML region of the spinal cord in six separate 50-nl injections using a glass micropipette (tip diameter, 20-30 μm). […] The wound was closed with sutures after injection. Animals were returned to their cages for 4-7 days, which was sufficient time to permit the tracer to be retrogradely transported to the PVN. The animals were inspected daily for motor activity, signs of infection, and food and water intake.
Brain slice preparation: Four to seven days after fluorescent tracer injection, the animals were anesthetized with isoflurane and rapidly decapitated. […] Coronal slices (thickness, 300 μm) containing the PVN were cut from the tissue block in the ice-cold aCSF. […] The brain slices were placed in a glass-bottom chamber and continuously perfused with aCSF at 3.0 ml/min at 34° C. maintained by an inline solution heater and temperature controller.
The labeled PVN neurons were briefly identified with the aid of epifluorescence illumination, and whole-cell recordings from labeled PVN neurons were performed under differential interference contrast optics on an upright microscope (BX50 WI; Olympus Optical, Tokyo, Japan). Recordings of postsynaptic currents began 5 min after the whole-cell access was established and the current reached a steady state.
Signals were processed with an […] amplifier (Axon Instruments, Foster City, Calif.). A liquid junction potential of 15 mV (for the potassium gluconate pipette solution) was corrected during off-line analysis.
Postsynaptic NMDAR currents were elicited by puff application of 100 μmol/L NMDA to the recorded neuron using a positive pressure system (4 p.s.i., 50 ms; Toohey Company, Fairfield, N.J.). The tip of the puff pipette was placed 150 μm from the recorded neuron. […] The NMDAR current data presented in the manuscript were the average of 3 consecutive currents elicited by repeated puff NMDA. The neuron was discarded if the current was not stable.
Ang II, losartan, and NMDA were obtained from Sigma (St. Louis, Mo.). The α2δ-1Tat peptide and scrambled control peptide were synthesized by Bio Basic Inc. (Markham, Ontario, Canada) and validated by liquid chromatography and mass spectrometry. […] All drugs were prepared immediately before the experiments and applied to the slice chamber. The brain slices were first pretreated with Ang II, losartan, α2δ-1Tat peptide, or control peptide in the slice incubation chamber before recording. For electrophysiological recording, the treatment agents were immediately removed and the brain slice transferred to a separate recording chamber.

[5] = paclitaxel-treated rats, AP5 50 μM, pregabalin 20 μM, peptides 1 μM
[6] = vehicle-treated rats, AP5 50 μM, pregabalin 20 μM, peptides 1 μM
[7] = daily morphine in vehicle- or control peptide-treated rats
[8] = WT mice, morphine 10 mg/kg twice a day, 8 days

presynaptic NMDARs of spinal lamina II neurons, sequence (Q00959 20-1464 limits assumed, other chains not shown): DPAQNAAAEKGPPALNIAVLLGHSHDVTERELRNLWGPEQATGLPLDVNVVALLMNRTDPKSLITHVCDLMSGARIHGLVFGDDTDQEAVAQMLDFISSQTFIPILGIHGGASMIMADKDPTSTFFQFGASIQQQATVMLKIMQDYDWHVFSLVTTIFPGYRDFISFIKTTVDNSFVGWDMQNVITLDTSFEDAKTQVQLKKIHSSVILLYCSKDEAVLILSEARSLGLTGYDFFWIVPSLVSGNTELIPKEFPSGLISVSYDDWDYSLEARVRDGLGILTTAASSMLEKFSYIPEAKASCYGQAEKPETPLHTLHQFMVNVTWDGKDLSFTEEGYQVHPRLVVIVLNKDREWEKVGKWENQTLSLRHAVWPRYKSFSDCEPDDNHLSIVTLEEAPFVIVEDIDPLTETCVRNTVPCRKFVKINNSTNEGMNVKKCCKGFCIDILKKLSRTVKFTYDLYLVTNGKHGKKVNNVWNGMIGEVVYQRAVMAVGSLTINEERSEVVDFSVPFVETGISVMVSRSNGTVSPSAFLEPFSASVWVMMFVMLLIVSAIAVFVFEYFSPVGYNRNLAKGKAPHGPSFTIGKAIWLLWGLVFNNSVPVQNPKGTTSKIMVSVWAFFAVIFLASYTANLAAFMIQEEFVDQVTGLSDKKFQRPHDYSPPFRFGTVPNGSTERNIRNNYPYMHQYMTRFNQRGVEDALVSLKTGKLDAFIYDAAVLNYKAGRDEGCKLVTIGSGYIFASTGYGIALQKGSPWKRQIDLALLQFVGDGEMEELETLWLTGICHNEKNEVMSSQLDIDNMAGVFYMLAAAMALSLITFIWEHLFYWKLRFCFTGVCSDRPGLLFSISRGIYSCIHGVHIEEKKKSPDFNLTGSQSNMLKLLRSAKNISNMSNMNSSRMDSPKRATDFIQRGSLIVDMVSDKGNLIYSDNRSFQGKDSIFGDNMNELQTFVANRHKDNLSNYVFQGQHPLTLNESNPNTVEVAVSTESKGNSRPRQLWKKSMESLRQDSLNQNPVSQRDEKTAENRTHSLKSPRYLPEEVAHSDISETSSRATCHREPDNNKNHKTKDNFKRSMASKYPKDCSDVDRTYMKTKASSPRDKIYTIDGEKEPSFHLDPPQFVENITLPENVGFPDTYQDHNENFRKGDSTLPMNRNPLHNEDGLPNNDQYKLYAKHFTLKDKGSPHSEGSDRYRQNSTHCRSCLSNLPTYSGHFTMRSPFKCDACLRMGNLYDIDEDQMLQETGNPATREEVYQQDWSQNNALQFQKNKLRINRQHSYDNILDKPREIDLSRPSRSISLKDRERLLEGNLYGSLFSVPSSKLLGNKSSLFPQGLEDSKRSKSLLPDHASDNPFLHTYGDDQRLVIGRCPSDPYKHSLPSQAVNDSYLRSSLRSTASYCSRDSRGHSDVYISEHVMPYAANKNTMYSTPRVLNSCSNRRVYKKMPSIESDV
presynaptic NMDARs of spinal lamina II neurons, sequence (Q00960 27-1482, other chains not shown): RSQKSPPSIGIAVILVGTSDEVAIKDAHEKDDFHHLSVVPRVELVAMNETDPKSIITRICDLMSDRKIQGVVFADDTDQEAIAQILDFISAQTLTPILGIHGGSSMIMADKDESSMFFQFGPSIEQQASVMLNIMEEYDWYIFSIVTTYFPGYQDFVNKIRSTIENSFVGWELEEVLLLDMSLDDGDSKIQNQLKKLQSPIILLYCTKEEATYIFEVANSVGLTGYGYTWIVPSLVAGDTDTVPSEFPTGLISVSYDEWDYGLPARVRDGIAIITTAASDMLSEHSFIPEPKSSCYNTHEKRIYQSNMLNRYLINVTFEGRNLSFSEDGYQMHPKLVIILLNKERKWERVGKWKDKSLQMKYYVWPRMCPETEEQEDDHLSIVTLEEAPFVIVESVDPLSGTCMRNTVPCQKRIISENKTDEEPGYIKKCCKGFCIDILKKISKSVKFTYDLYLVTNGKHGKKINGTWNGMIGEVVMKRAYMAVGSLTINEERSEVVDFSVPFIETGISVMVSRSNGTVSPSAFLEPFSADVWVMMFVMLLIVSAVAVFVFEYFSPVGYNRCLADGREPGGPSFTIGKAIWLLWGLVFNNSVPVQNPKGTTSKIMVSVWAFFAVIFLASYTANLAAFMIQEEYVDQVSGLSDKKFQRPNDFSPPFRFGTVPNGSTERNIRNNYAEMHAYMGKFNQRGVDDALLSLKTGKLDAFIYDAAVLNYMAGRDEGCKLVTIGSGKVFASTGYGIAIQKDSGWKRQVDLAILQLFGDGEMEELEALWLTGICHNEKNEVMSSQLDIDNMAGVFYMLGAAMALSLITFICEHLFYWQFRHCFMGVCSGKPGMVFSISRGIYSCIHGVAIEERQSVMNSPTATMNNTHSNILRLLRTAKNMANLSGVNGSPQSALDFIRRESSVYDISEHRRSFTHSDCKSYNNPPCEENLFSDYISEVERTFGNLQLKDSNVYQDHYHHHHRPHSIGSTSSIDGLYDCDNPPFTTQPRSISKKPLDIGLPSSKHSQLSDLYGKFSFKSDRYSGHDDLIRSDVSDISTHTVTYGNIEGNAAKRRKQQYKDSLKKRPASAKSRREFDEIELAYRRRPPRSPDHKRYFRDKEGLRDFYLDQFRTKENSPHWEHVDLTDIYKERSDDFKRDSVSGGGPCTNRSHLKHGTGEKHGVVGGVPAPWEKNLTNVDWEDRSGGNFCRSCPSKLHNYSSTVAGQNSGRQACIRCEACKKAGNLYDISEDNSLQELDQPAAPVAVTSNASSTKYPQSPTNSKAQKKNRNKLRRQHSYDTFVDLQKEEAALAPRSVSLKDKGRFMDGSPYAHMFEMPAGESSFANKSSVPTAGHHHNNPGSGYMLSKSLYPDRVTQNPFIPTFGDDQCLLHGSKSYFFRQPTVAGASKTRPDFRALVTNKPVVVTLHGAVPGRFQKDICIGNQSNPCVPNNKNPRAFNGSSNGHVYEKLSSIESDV

`CC(C)C[C@H](CN)CC(=O)O` [pregabalin] was tested, and the “reduced PPR of evoked EPSCs” value ([1]; paclitaxel-treated rats) was “completely normalized”, the “increased amplitude of evoked monosynaptic EPSCs” value [1, 5] was “returned the amplitude of evoked monosynaptic EPSCs of lamina II neurons to the baseline level” and the “increased frequency of mEPSCs of lamina II neurons” value [1, 5] was “completely normalized”. For the same compound, the “PPR of evoked EPSCs” value ([1]; vehicle-treated rats) was “had no effect”, the “amplitude of evoked monosynaptic EPSCs” value [1, 6] was “had no effect” and the “frequency of mEPSCs of lamina II neurons” value [1, 6] was “had no effect”. The “paclitaxel-induced pain hypersensitivity (tactile allodynia, mechanical and thermal hyperalgesia)” value (paclitaxel-treated rats) was “readily reversed”.

`CC12CC3CC(C)(C1)CC(N)(C3)C2` [memantine] was tested, and the “pain hypersensitivity induced by Cacna2d1 overexpression (tactile and pressure withdrawal thresholds)” value [2] was “readily reversed”.

In the case of `CN1CC[C@]23c4c5ccc(O)c4O[C@H]2[C@@H](O)C=C[C@H]3[C@H]1C5.O=S(=O)(O)O` [morphine, morphine sulfate], the “effect of 5 mg/kg morphine on the withdrawal thresholds” value (morphine-treated rats; by day 6, vehicle- or control peptide-treated rats) was “failed to produce a significant effect”, the “anti-nociceptive effect of morphine” value (morphine-treated rats; [7]) was “gradual decrease” and the “baseline withdrawal thresholds (mechanical and thermal hyperalgesia)” value (morphine-treated rats; [7]) was “gradual reduction”. The “amplitude of monosynaptic EPSCs evoked from the dorsal root” value ([3]; chronic morphine) was “markedly increased”, the “NMDAR-mediated frequency of mEPSCs of spinal dorsal horn neurons” value ([3]; morphine 10 mg/kg twice a day for 8 day) was “significantly increased” and the “anti-nociceptive effect of morphine at the end of 8-day treatment” value (WT and Cacna2d1 KO mice; Cacna2d1 KO mice) was “largely preserved”. The baseline withdrawal threshold (WT and Cacna2d1 KO mice; Cacna2d1 KO mice, daily morphine) was “did not significantly affect”, the “anti-nociceptive effect of morphine” value (WT and Cacna2d1 KO mice; [8]) was “diminished” and the “baseline withdrawal thresholds to noxious pressure and heat” value (WT and Cacna2d1 KO mice; [8]) was “gradually reduced”.

For `CCCCc1nc(Cl)c(CO)n1Cc1ccc(-c2ccccc2-c2nn[nH]n2)cc1` [losartan], the “effect of Ang II on mEPSC frequency in pretreated slices” value [4] was “completely blocked” and the “effect of Ang II on puff NMDA currents in pretreated slices” value ([4]; 30 min) was “abolished”.
